Assay results published in patent US20230148599A1, “FUNGICIDAL MIXTURES CONTAINING PYRAZOLE DERIVATIVES” (FMC Corporation, priority 2020, published 2023).

system: Alternaria solani; experiment: Test F: tomato early blight, preventive spray on tomato seedlings; assay type: in vivo; conditions: 50 ppm, 100 = 100% disease control, 0 = no control
Method in brief: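 Preventive test: one day after the compound spray, seedlings were inoculated with A. solani, incubated saturated at 27 °C for 48 h, then kept at 20 °C for 3 days. Test suspensions contained acetone/water 50/50 with 250 ppm PEG400 surfactant. Visual ratings run from 0 (no control) to 100 (full control).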

SMILES	Test F disease control rating [%]
COc1ccc(-c2c(C)nn(C)c2Nc2c(F)cc(Br)cc2[N+](=O)[O-])c(Cl)c1 [compound 182]	99
COc1ccc(-c2c(C)nn(C)c2Nc2c(C)cccc2[N+](=O)[O-])c(Cl)c1 [compound 183]	58
COc1ccc(-c2c(C)nn(C)c2Nc2c(Cl)cccc2[N+](=O)[O-])c(Cl)c1 [compound 184]	26
CCc1nn(C)c(Nc2c(F)cc(C)cc2[N+](=O)[O-])c1-c1ccc(F)cc1F [compound 185]	99
COc1ccc(-c2c(C)nn(C)c2Nc2c(F)cc(OC)cc2[N+](=O)[O-])c(Cl)c1 [compound 186]	100
COc1ccc(-c2c(C)nn(C)c2Nc2ccc(OC)cc2[N+](=O)[O-])c(Cl)c1 [compound 187]	100
COc1ccc(-c2c(C)nn(C)c2Nc2c(F)cc(C)cc2[N+](=O)[O-])c(Cl)c1 [compound 188]	100
Cc1nn(C)c(Nc2ccccc2[N+](=O)[O-])c1-c1ccc(Cl)cc1Cl [compound 189]	0
Cc1nn(C)c(Nc2ccccc2[N+](=O)[O-])c1-c1ccc(F)cc1F [compound 190]	9
Cc1nn(C)c(Nc2c(F)cc(Br)cc2[N+](=O)[O-])c1-c1ccc(F)cc1Br [compound 191]	100
Cc1nn(C)c(Nc2c(F)cccc2[N+](=O)[O-])c1-c1ccc([N+](=O)[O-])cc1Cl [compound 192]	93

system: Puccinia recondita f. sp. tritici; experiment: Test B: wheat leaf rust, preventive spray on wheat seedlings; assay type: in vivo; conditions: 50 ppm, 100 = 100% disease control, 0 = no control
Method in brief: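 Preventive test: compound in acetone/water 50/50 with 250 ppm PEG400 was sprayed onto wheat seedlings one day before inoculation with leaf rust spores. After 24 h in saturated air and 7 days in a growth chamber, both at 20 °C, disease control was scored from 0 to 100 against controls.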

SMILES	Test B disease control rating [%]
COc1ccc(-c2c(C)nn(C)c2Nc2c(F)cc(Br)cc2[N+](=O)[O-])c(Cl)c1 [compound 182]	99
COc1ccc(-c2c(C)nn(C)c2Nc2c(C)cccc2[N+](=O)[O-])c(Cl)c1 [compound 183]	99
COc1ccc(-c2c(C)nn(C)c2Nc2c(Cl)cccc2[N+](=O)[O-])c(Cl)c1 [compound 184]	100
CCc1nn(C)c(Nc2c(F)cc(C)cc2[N+](=O)[O-])c1-c1ccc(F)cc1F [compound 185]	100
COc1ccc(-c2c(C)nn(C)c2Nc2c(F)cc(OC)cc2[N+](=O)[O-])c(Cl)c1 [compound 186]	100
COc1ccc(-c2c(C)nn(C)c2Nc2ccc(OC)cc2[N+](=O)[O-])c(Cl)c1 [compound 187]	100
COc1ccc(-c2c(C)nn(C)c2Nc2c(F)cc(C)cc2[N+](=O)[O-])c(Cl)c1 [compound 188]	100
Cc1nn(C)c(Nc2ccccc2[N+](=O)[O-])c1-c1ccc(Cl)cc1Cl [compound 189]	68
Cc1nn(C)c(Nc2ccccc2[N+](=O)[O-])c1-c1ccc(F)cc1F [compound 190]	32
Cc1nn(C)c(Nc2c(F)cc(Br)cc2[N+](=O)[O-])c1-c1ccc(F)cc1Br [compound 191]	100
Cc1nn(C)c(Nc2c(F)cccc2[N+](=O)[O-])c1-c1ccc([N+](=O)[O-])cc1Cl [compound 192]	99

system: Botrytis cinerea; experiment: Test E: tomato Botrytis, preventive spray on tomato seedlings; assay type: in vivo; conditions: 50 ppm, 100 = 100% disease control, 0 = no control
Method in brief: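 Preventive test: seedlings sprayed to run-off with compound in acetone/water (50/50) plus 250 ppm PEG400, inoculated one day later with B. cinerea spores. Held 48 h saturated at 20° C, then 3 days at 24° C; disease control scored visually from 0 to 100 versus controls.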

SMILES	Test E disease control rating [%]
COc1ccc(-c2c(C)nn(C)c2Nc2c(F)cc(Br)cc2[N+](=O)[O-])c(Cl)c1 [compound 182]	100
COc1ccc(-c2c(C)nn(C)c2Nc2c(C)cccc2[N+](=O)[O-])c(Cl)c1 [compound 183]	100
COc1ccc(-c2c(C)nn(C)c2Nc2c(Cl)cccc2[N+](=O)[O-])c(Cl)c1 [compound 184]	100
CCc1nn(C)c(Nc2c(F)cc(C)cc2[N+](=O)[O-])c1-c1ccc(F)cc1F [compound 185]	96
COc1ccc(-c2c(C)nn(C)c2Nc2c(F)cc(OC)cc2[N+](=O)[O-])c(Cl)c1 [compound 186]	100
COc1ccc(-c2c(C)nn(C)c2Nc2ccc(OC)cc2[N+](=O)[O-])c(Cl)c1 [compound 187]	100
COc1ccc(-c2c(C)nn(C)c2Nc2c(F)cc(C)cc2[N+](=O)[O-])c(Cl)c1 [compound 188]	100
Cc1nn(C)c(Nc2ccccc2[N+](=O)[O-])c1-c1ccc(Cl)cc1Cl [compound 189]	99
Cc1nn(C)c(Nc2ccccc2[N+](=O)[O-])c1-c1ccc(F)cc1F [compound 190]	100
Cc1nn(C)c(Nc2c(F)cc(Br)cc2[N+](=O)[O-])c1-c1ccc(F)cc1Br [compound 191]	100
Cc1nn(C)c(Nc2c(F)cccc2[N+](=O)[O-])c1-c1ccc([N+](=O)[O-])cc1Cl [compound 192]	99

system: Septoria tritici; experiment: Test A: wheat leaf blotch, preventive spray on wheat seedlings; assay type: in vivo; conditions: 50 ppm, 100 = 100% disease control, 0 = no control
Method in brief: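 Preventive test: one day after spraying seedlings to run-off (concentrations in ppm; acetone/water, 250 ppm PEG400), Septoria tritici spores applied. Scored after 48 h humid incubation at 24 °C plus 17 days at 20 °C, as percent disease control versus untreated controls (100 = full control).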

SMILES	Test A disease control rating [%]
COc1ccc(-c2c(C)nn(C)c2Nc2c(F)cc(Br)cc2[N+](=O)[O-])c(Cl)c1 [compound 182]	100
COc1ccc(-c2c(C)nn(C)c2Nc2c(C)cccc2[N+](=O)[O-])c(Cl)c1 [compound 183]	100
COc1ccc(-c2c(C)nn(C)c2Nc2c(Cl)cccc2[N+](=O)[O-])c(Cl)c1 [compound 184]	100
CCc1nn(C)c(Nc2c(F)cc(C)cc2[N+](=O)[O-])c1-c1ccc(F)cc1F [compound 185]	100
COc1ccc(-c2c(C)nn(C)c2Nc2c(F)cc(OC)cc2[N+](=O)[O-])c(Cl)c1 [compound 186]	100
COc1ccc(-c2c(C)nn(C)c2Nc2ccc(OC)cc2[N+](=O)[O-])c(Cl)c1 [compound 187]	99
COc1ccc(-c2c(C)nn(C)c2Nc2c(F)cc(C)cc2[N+](=O)[O-])c(Cl)c1 [compound 188]	100
Cc1nn(C)c(Nc2ccccc2[N+](=O)[O-])c1-c1ccc(Cl)cc1Cl [compound 189]	99
Cc1nn(C)c(Nc2ccccc2[N+](=O)[O-])c1-c1ccc(F)cc1F [compound 190]	100
Cc1nn(C)c(Nc2c(F)cc(Br)cc2[N+](=O)[O-])c1-c1ccc(F)cc1Br [compound 191]	100
Cc1nn(C)c(Nc2c(F)cccc2[N+](=O)[O-])c1-c1ccc([N+](=O)[O-])cc1Cl [compound 192]	100

system: Blumeria graminis f. sp. tritici; experiment: Test C: wheat powdery mildew, preventive spray on wheat seedlings; assay type: in vivo; conditions: 50 ppm, 100 = 100% disease control, 0 = no control
Method in brief: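 Preventive test: inoculation with spore dust came one day after spraying seedlings to run-off with ppm suspensions in acetone/water (50/50) plus 250 ppm PEG400 surfactant. Visual ratings after 8 days' incubation at 20° C give percent disease control relative to controls.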

SMILES	Test C disease control rating [%]
COc1ccc(-c2c(C)nn(C)c2Nc2c(F)cc(Br)cc2[N+](=O)[O-])c(Cl)c1 [compound 182]	76
COc1ccc(-c2c(C)nn(C)c2Nc2c(C)cccc2[N+](=O)[O-])c(Cl)c1 [compound 183]	78
COc1ccc(-c2c(C)nn(C)c2Nc2c(Cl)cccc2[N+](=O)[O-])c(Cl)c1 [compound 184]	21
CCc1nn(C)c(Nc2c(F)cc(C)cc2[N+](=O)[O-])c1-c1ccc(F)cc1F [compound 185]	99
COc1ccc(-c2c(C)nn(C)c2Nc2c(F)cc(OC)cc2[N+](=O)[O-])c(Cl)c1 [compound 186]	99
COc1ccc(-c2c(C)nn(C)c2Nc2ccc(OC)cc2[N+](=O)[O-])c(Cl)c1 [compound 187]	91
COc1ccc(-c2c(C)nn(C)c2Nc2c(F)cc(C)cc2[N+](=O)[O-])c(Cl)c1 [compound 188]	94
Cc1nn(C)c(Nc2ccccc2[N+](=O)[O-])c1-c1ccc(Cl)cc1Cl [compound 189]	57
Cc1nn(C)c(Nc2ccccc2[N+](=O)[O-])c1-c1ccc(F)cc1F [compound 190]	91
Cc1nn(C)c(Nc2c(F)cc(Br)cc2[N+](=O)[O-])c1-c1ccc(F)cc1Br [compound 191]	99
Cc1nn(C)c(Nc2c(F)cccc2[N+](=O)[O-])c1-c1ccc([N+](=O)[O-])cc1Cl [compound 192]	76

system: Phakopsora pachyrhizi; experiment: Test D: Asian soybean rust, preventive spray on soybean seedlings; assay type: in vivo; conditions: 50 ppm, 100 = 100% disease control, 0 = no control
Method in brief: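 Compounds in acetone/water (50/50) with 250 ppm PEG400, dosed in ppm, sprayed to run-off on soybean seedlings; inoculated with P. pachyrhizi spores next day. Held 24 h at 22 °C in saturated air, then 8 days at 22 °C; visual rating of disease control, 0–100, relative to untreated controls.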

SMILES	Test D disease control rating [%]
COc1ccc(-c2c(C)nn(C)c2Nc2c(F)cc(Br)cc2[N+](=O)[O-])c(Cl)c1 [compound 182]	0
COc1ccc(-c2c(C)nn(C)c2Nc2c(C)cccc2[N+](=O)[O-])c(Cl)c1 [compound 183]	0
COc1ccc(-c2c(C)nn(C)c2Nc2c(Cl)cccc2[N+](=O)[O-])c(Cl)c1 [compound 184]	0
CCc1nn(C)c(Nc2c(F)cc(C)cc2[N+](=O)[O-])c1-c1ccc(F)cc1F [compound 185]	0
COc1ccc(-c2c(C)nn(C)c2Nc2c(F)cc(OC)cc2[N+](=O)[O-])c(Cl)c1 [compound 186]	94
COc1ccc(-c2c(C)nn(C)c2Nc2ccc(OC)cc2[N+](=O)[O-])c(Cl)c1 [compound 187]	0
COc1ccc(-c2c(C)nn(C)c2Nc2c(F)cc(C)cc2[N+](=O)[O-])c(Cl)c1 [compound 188]	84
Cc1nn(C)c(Nc2ccccc2[N+](=O)[O-])c1-c1ccc(Cl)cc1Cl [compound 189]	0
Cc1nn(C)c(Nc2ccccc2[N+](=O)[O-])c1-c1ccc(F)cc1F [compound 190]	0
Cc1nn(C)c(Nc2c(F)cc(Br)cc2[N+](=O)[O-])c1-c1ccc(F)cc1Br [compound 191]	13
Cc1nn(C)c(Nc2c(F)cccc2[N+](=O)[O-])c1-c1ccc([N+](=O)[O-])cc1Cl [compound 192]	19
